In the C3SDB collision cross section collection:

Settings: instrument: TW, calibrated with polyalanine

| Compound | collision cross section (N2) ([M-H]-) [Å²] | collision cross section (N2) ([M+H]+) [Å²] | collision cross section (N2) ([M+K]+) [Å²] | collision cross section (N2) ([M+NH4]+) [Å²] | collision cross section (N2) ([M+Na]+) [Å²] |
| --- | --- | --- | --- | --- | --- |
| C[C@H]1CCC[C@H](O)CCC/C=C/c2cc(O)cc(O)c2C(=O)O1 [alpha-zearalenol] | 173 | – | – | – | – |
| C=CC(C)(C)[C@@]12C=C(O)C(=O)N3/C(=C/c4cnc[nH]4)C(=O)N[C@]31N(OC)c1ccccc12 [Meleagrin] | – | 201 | – | – | – |
| CC[C@H](C)[C@H]1C(=O)O[C@H](C(C)C)C(=O)N(C)[C@@H]([C@@H](C)CC)C(=O)O[C@H](C(C)C)C(=O)N(C)[C@@H](C(C)C)C(=O)O[C@H](C(C)C)C(=O)N1C [Enniatin A1] | – | 252.2 | 257.9 | 259 | 258 |
| CCCC[C@@H](C)[C@@H](OC(=O)CC(CC(=O)O)C(=O)O)[C@H](C[C@@H](C)C[C@H](O)CCCCCC[C@@H](O)[C@H](C)N)OC(=O)CC(CC(=O)O)C(=O)O (stereo partly specified) [Fumonisin B3] | – | 258 | 264.5 | – | 259.2 |
| CC(C)[C@H]1OC(=O)[C@H](Cc2ccccc2)N(C)C(=O)[C@@H](C(C)C)OC(=O)[C@H](Cc2ccccc2)N(C)C(=O)[C@@H](C(C)C)OC(=O)[C@H](Cc2ccccc2)N(C)C1=O [Beauvericin] | – | 283.8 | 290.3 | 269 | 287.4 |
| C=C(C)C(=O)/C(=C/C(=O)O)OC [Penicillic acid] | – | 131 | – | – | – |
| COc1c(C)c2c(c(O)c1C/C=C(\C)CCC(=O)O)C(=O)OC2 [Mycophenolic acid] | – | – | – | 176 | – |
| Cc1cc(O)cc2oc(=O)c3c(O)cc(O)cc3c12 [Alternariol] | 146 | – | – | – | – |
